# Experimental data taken from ChEMBL document CHEMBL4765331, “Amides of pyrrole- and thiophene-fused anthraquinone derivatives: A role of the heterocyclic core in antitumor properties” (Eur J Med Chem, 2020).
# Active and inactive are the calls of the source. The rule behind the calls is not given here.
# Key:
# [1] = tested on: CAPAN-1; assay: Antiproliferative activity against human CAPAN-1 cells assessed as inhibition of cell proliferation measured after 72 hrs by MTT assay; type: functional, cell-based; details: CAPAN-1, 72 h
# [2] = tested on: K562; assay: Antiproliferative activity against human K562 cells assessed as inhibition of cell proliferation measured after 72 hrs by MTT assay; type: functional, cell-based; details: K562, 72 h
# [3] = Selectivity index, ratio of IC50 for human TERT-RPE1 cells to IC50 for human CAPAN-1 cells
# [4] = Resistance index, ratio of IC50 for human P-gp-positive/Doxorubicin-resistant K562/4 cells to IC50 for human K562 cells; type: functional
# [5] = tested on: Calf thymus DNA; assay: Binding affinity to calf thymus double stranded DNA at 10 uM measured after 5 mins by flourescence spectroscopy method; details: Bos taurus
# [6] = tested on: Calf thymus DNA; assay: Binding affinity to calf thymus DNA assessed as DNA intercalation by measuring decrease of negative DNA band at 245 nm at 50 uM by circular dichroism spectral analysis; type: tissue-based; details: Bos taurus
# [7] = tested on: Calf thymus DNA; assay: Binding affinity to calf thymus DNA assessed as stoichiometry ratio of compound-DNA complex formation by scatchard plot analysis; details: Bos taurus
# [8] = biological target: T1, DNA topoisomerase 1 (Homo sapiens) (UniProt P11387); assay: Inhibition of human topoisomerase 1-mediated relaxation of supercoiled plasmid using pBR322 plasmid as substrate at 40 uM measured after 30 mins by ethidium bromide dye based agarose gel electrophoresis method
# T1 sequence (whole entry): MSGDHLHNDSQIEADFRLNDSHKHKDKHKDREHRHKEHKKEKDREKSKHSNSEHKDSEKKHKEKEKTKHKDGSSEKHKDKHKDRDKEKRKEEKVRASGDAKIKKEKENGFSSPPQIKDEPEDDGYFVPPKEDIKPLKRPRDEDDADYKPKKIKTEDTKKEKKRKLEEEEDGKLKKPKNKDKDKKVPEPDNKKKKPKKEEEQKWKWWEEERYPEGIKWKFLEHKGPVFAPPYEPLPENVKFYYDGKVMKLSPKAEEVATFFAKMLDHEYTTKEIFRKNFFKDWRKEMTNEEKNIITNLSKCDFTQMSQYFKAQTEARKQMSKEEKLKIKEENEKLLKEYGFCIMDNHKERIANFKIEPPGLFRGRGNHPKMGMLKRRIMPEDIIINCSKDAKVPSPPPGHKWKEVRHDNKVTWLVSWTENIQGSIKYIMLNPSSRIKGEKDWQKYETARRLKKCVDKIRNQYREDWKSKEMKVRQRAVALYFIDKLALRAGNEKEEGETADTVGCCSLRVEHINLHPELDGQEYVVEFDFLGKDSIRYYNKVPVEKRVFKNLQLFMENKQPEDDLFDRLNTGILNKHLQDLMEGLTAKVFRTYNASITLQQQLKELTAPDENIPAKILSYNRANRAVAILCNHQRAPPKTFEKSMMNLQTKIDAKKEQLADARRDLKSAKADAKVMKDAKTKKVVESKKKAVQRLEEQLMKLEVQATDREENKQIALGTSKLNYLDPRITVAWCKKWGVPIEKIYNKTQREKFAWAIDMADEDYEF
# [9] = Drug uptake in mouse NIH3T3 cells assessed as compound localization in mitochondria at 1 uM measured after 15 mins by Mitotracker Green FM dye based laser scanning microscope; type: ADME; details: nih3t3, 0.25 h
# [10] = Drug uptake in mouse NIH3T3 cells assessed as compound localization in cytoplasm at 1 uM measured after 15 mins by laser scanning microscope; type: ADME, subcellular; details: nih3t3, 0.25 h
# [11] = tested on: K562; assay: Induction of apoptosis in human K562 cells assessed as viable cells at 1.6 uM measured after 48 hrs by Annexin V-APC/PI staining based flow cytometry assay (reference value: 85.9%); type: functional; details: read-out: Activity
# [12] = tested on: K562; assay: Induction of apoptosis in human K562 cells assessed as early apoptotic cells at 1.6 uM measured after 24 hrs by Annexin V-APC/PI staining based flow cytometry assay (reference value: 3.4%); type: functional
# [13] = tested on: K562; assay: Induction of apoptosis in human K562 cells assessed as late apoptotic cells at 1.6 uM measured after 48 hrs by Annexin V-APC/PI staining based flow cytometry assay (reference value: […]); type: functional
# [14] = tested on: K562; assay: Induction of apoptosis in human K562 cells assessed as necrotic cells at 1.6 uM measured after 24 hrs by Annexin V-APC/PI staining based flow cytometry assay (reference value: 3.9%); type: functional
# [15] = tested on: K562; assay: Induction of apoptosis in human K562 cells assessed as necrotic cells at 1.6 uM measured after 48 hrs by Annexin V-APC/PI staining based flow cytometry assay (reference value: 3.9%); type: functional
# [16] = tested on: K562; assay: Induction of oxidative stress in human K562 cells assessed as increase in intracellular ROS generation at 1.6 uM measured after 40 mins by Deep Red dye based flow cytometry method; type: functional, cell-based
# [17] = tested on: P388; assay: Antitumour activity against mouse P388 cells xenografted intraperitoneally in BDF1 mouse assessed as mean life span time at 20 mg/kg, ip administered qd for 5 days (reference value: 11.5 +/-0.9 days); type: functional; details: dose 20 mg/kg/day; time 5 day
# [18] = tested on: P388; assay: Antitumour activity against mouse P388 cells xenografted intraperitoneally in BDF1 mouse assessed as […] T/C ratio at 20 mg/kg, ip administered qd for 5 days (reference value: 100%); type: functional; details: dose 20 mg/kg/day; time 5 day
# [19] = tested on: P388; assay: Antitumour activity against mouse P388 cells xenografted subcutaneously in BDF1 mouse assessed as inhibition of tumour growth at 60 mg/kg, ip administered qd for 5 days starting from day 1 of tumor cell inoculation and measured at day 18 post-tumor cell inoculation; type: functional; details: P388, 432 h, time 18 day, read-out: TGI
# [20] = Toxicity in BDF1 mouse xenografted with mouse P388 cells assessed as lethality at 60 mg/kg, ip administered qd for 5 days; type: organism-based; details: in vivo, 120 h, dose 60 mg/kg/day, time 5 day
# [21] = Selectivity index, ratio of IC50 for human TERT-RPE1 cells to IC50 for human NCI-H460 cells; type: toxicity; details: TERT-RPE1 cells and NCI-H460 cells, read-out: Ratio IC50
# [22] = Selectivity index, ratio of IC50 for human TERT-RPE1 cells to IC50 for human K562 cells; type: toxicity; details: TERT-RPE1 cells and K562 cells, read-out: Ratio IC50
# [23] = Drug uptake in human K562i/S9 cells harboring exogenously expressed MDR1/Pgp; type: ADME, cell-based
# [24] = tested on: K562; assay: Induction of cell cycle arrest in human K562 cells assessed as accumulation at G2/M phase at 2XIC50 measured after 24 hrs by propidium iodide/RNase staining based flow cytometry; type: functional
# [25] = tested on: K562; assay: Induction of cell cycle arrest in human K562 cells assessed as accumulation at G2/M phase at 2XIC50 measured after 48 hrs by propidium iodide/RNase staining based flow cytometry; type: functional
# [26] = tested on: K562; assay: Induction of cell cycle arrest in human K562 cells assessed as accumulation at subG1 phase at 2XIC50 measured after 24 hrs by propidium iodide/RNase staining based flow cytometry; type: functional
# [27] = tested on: P388; assay: Antitumour activity against mouse P388 cells xenografted subcutaneously in BDF1 mouse assessed as inhibition of tumour growth at 20 to 60 mg/kg, ip administered qd for 5 days starting from day 1 of tumor cell inoculation and measured at day 14 to 18 post-tumor cell inoculation; type: functional, organism-based; details: dose 20-60 mg/kg, time 14-18 day, TDE = time-dependent effect
structure (smiles),measurement,setting,value
Cc1[nH]c2c(O)c3c(c(O)c2c1C(=O)N1CC[C@H](N)C1)C(=O)c1ccccc1C3=O,IC50,[1],0.5 µM
same,IC50,[2],0.8 µM
same,Ratio IC50,[3],18
same,Ratio IC50,[4],26.5
same,Activity,[5],Active
same,Activity,[6],Active
same,Ratio,[7],4.6
same,inhibition,[8],Active
same,Drug uptake,[9],Active
same,Drug uptake,[10],Active
same,viability at 1.6 µM,[11],56.6%
same,Activity,[12],1.3%
same,Activity,[13],7.5%
same,Activity,[14],21%
same,Activity,[15],34.8%
same,Activity,[16],inactive
same,Time,[17],17.6 days
same,T/C,[18],153%
same,inhibition in vivo at 60 mg/kg,[19],79%
same,Activity,[20],Non-Toxic
same,selectivity ratio,[21],18
same,selectivity ratio,[22],18
same,Drug uptake,[23],Active
same,Activity,[24],Active
same,Activity,[25],Active
same,Activity,[26],Active
same,Activity,[27],Tde
